In paper PMC10044120, “Potent and selective covalent inhibition of the papain-like protease from SARS-CoV-2” (Nature Communications, 2023):
“And” between values parts separate entries of the source, which are not always exact repeats. Identical values can stand only once. Like-named read-outs stand apart in the source and are kept apart here.

Legend:
PLpro from SARS-CoV-2 [1] = target: T1, PLpro from SARS-CoV-2 (Severe acute respiratory syndrome coronavirus 2, UniProt P0DTD1); assay: biochemical; assay type: biochemical; conditions: for remaining activity at 100 µM: inhibitor 100.00 uM; for remaining activity at […]: read-out: % Plpro activity; for IC50: after 30-min incubation; for remaining activity at 0.02 µM: inhibitor 0.02 uM; for remaining activity at 2.01 µM: inhibitor 2.01 uM; for remaining activity at 6.34 µM: inhibitor 6.34 uM
[2] = system: SARS-CoV-2 isolate USA-WA1/2020; conditions: for inhibition: read-out: cytopathic effect, % cell viability, duplicate wells
Vero E6 cells = conditions: African green monkey, 48 h
in vitro = conditions: African green monkey, cytotoxicity, %cell viability
[3] = system: SARS-CoV-2 isolate USA-WA1/2020; assay: microbe, parasite or virus in culture; conditions: for inhibition at 2.08 µM: Severe acute respiratory syndrome coronavirus 2, Vero C1008, read-out: cytopathic effect, % cell viability, [inhibitor] 2.08 uM; for inhibition at […]: Severe acute respiratory syndrome coronavirus 2, Vero C1008, read-out: cytopathic effect, % cell viability
PLpro from SARS-CoV-2 [4] = target: T1, PLpro from SARS-CoV-2; assay: biochemical; assay type: biochemical; conditions: fluorogenic peptide assay, varied preincubation time
PLpro = PLpro (Severe acute respiratory syndrome coronavirus 2, UniProt P0DTD1); assay: Intact protein ESI-MS to assess covalent adduct formation; assay type: binding, SARS-CoV-2; set-up: unit not given here
[5] = purified PLpro, Z-RLRGG-AMC substrate

Row | SMILES | remaining activity at 100 µM (PLpro from SARS-CoV-2 [1]; 0.5 h) | remaining activity at […] (PLpro from SARS-CoV-2 [1]; 0.5 h) | inhibition ([2]; [inhibitor] 2.08 uM, 2.08 µM) | cytotoxicity, %cell viability (Vero E6 cells; 2.08 µM) | cytotoxicity, %cell viability (Vero E6 cells; 8.33 µM) | cytotoxicity, %cell viability (Vero E6 cells; 16.65 µM) | viability at 48 h, 2.08 µM (in vitro) | viability at 48 h, 8.33 µM (in vitro) | viability at 48 h, 16.65 µM (in vitro) | inhibition at 2.08 µM ([3]; duplicate wells) | IC50 (PLpro from SARS-CoV-2 [1]; [5]) | Time dep. (time-dependent inhibition) (PLpro from SARS-CoV-2 [4]) | inhibition at […] [3] | remaining activity at 0.02 µM (PLpro from SARS-CoV-2 [1]; 0.5 h) | remaining activity at 2.01 µM (PLpro from SARS-CoV-2 [1]; 0.5 h) | remaining activity at 6.34 µM (PLpro from SARS-CoV-2 [1]; 0.5 h) | cytotoxicity, %cell viability (Vero E6 cells; 16.67 µM) | cytotoxicity, %cell viability (Vero E6 cells; 33.33 µM) | viability at 48 h, 16.67 µM (in vitro) | viability at 48 h, 33.33 µM (in vitro) | also measured
1 | COC(=O)CCc1ccccc1C(=O)N[C@H](C)c1cccc2ccccc12 [Compound 3, methyl (R)−3-(2-((1-(naphthalen-1-yl)ethyl)carbamoyl)phenyl)propanoate] | 78.6% | 119% and 108% | 8.63% | 99.61% | 97.36% | 90.64% | 105% | 93.2% | 92% | 7.81% | – | – | – | – | – | – | – | – | – | – | –
2 | C[C@@H](NC(=O)c1ccccc1CCC(=O)NN)c1cccc2ccccc12 [Compound 5, (R)-2-(3-hydrazineyl-3-oxopropyl)-N-(1-(naphthalen-1-yl)ethyl)benzamide] | 13.9% | 103% and 109% | 7.12% | 100.12% | 100.79% | 89.16% | 101% | 97% | 94.8% | 11.2% | 24 µM | No | 11.2% | – | – | – | – | – | – | – | remaining activity at 19.5 µM (PLpro from SARS-CoV-2 [1]; 0.5 h, inhibitor 19.50 uM): 46.4%; inhibition ([2]; [inhibitor] 8.33 uM, 8.33 µM): 8.31%; inhibition ([2]; [inhibitor] 16.65 uM, 16.65 µM): 2.6%; inhibition at 8.33 µM ([3]; Severe acute respiratory syndrome coronavirus 2, Vero C1008, read-out: cytopathic effect, % cell viability, [inhibitor] 8.33 uM, duplicate wells): 8.24%; inhibition at 16.65 µM ([3]; Severe acute respiratory syndrome coronavirus 2, Vero C1008, read-out: cytopathic effect, % cell viability, [inhibitor] 16.65 uM, duplicate wells): 2.95%
3 | CC(=O)Nc1ccc(CCC(=O)NNC(=O)CCl)c(C(=O)N[C@H](C)c2cccc3ccccc23)c1 [Compound 10, (R)-5-acetamido-2-(3-(2-(2-chloroacetyl)hydrazineyl)-3-oxopropyl)-N-(1-(naphthalen-1-yl)ethyl)benzamide] | – | – | 1.32% | 80.200% | 79.780% | – | 92.2% | 84.4% | – | 2.2% | – | – | – | 90.3% | 80.3% | 37.2% | 73.170% | 66.030% | 81.5% | 73.4% | remaining activity at 0.06 µM (PLpro from SARS-CoV-2 [1]; 0.5 h, inhibitor 0.06 uM): 102%; IC50 (PLpro from SARS-CoV-2 [1]; […]): 4.4 µM; Measured adduct mass (PLpro): 460
4 | C[C@@H](NC(=O)c1ccccc1CCC(=O)NNC(=O)CC#N)c1cccc2ccccc12 [Compound 11, (R)-2-(3-(2-(2-cyanoacetyl)hydrazineyl)-3-oxopropyl)-N-(1-(naphthalen-1-yl)ethyl)benzamide] | – | – | 4.7% | 98.90% | 91.20% | – | 101% | 94% | – | 8% | 8 µM | not and No | 9.7% | 84.4% | 71.3% | 46.4% | 87.90% | 80.50% | 88.6% | 80.8% | remaining activity at 0.2 µM (PLpro from SARS-CoV-2 [1]; 0.5 h, inhibitor 0.20 uM): 89.9%; remaining activity at 20 µM (PLpro from SARS-CoV-2 [1]; 0.5 h, inhibitor 20.00 uM): 41.4%; remaining activity at 200 µM (PLpro from SARS-CoV-2 [1]; 0.5 h, inhibitor 200.00 uM): 5.83%; EC50 (cytopathic effect) ([2]; SARS-CoV-2-infected Vero E6 cells, 48 h): No CPE
